# Laboratory results reported in patent publication US10286000B2, “Retinoid X receptor-gamma agonists and retinoid X receptor-alpha antagonists for treatment of cancer” (St. Jude Children's Research Hospital, Inc., priority 2013, dated 2019).
# How the values were obtained:
# [1] = test system: soluble ULBP2 from HCT116 cells; assay: ULBP2 ELISA (shedding to culture supernatant); type: cell-based, human; conditions: 56 μM, 3 days
# Experimental: ULBP2 shed from cell surface to the culture supernatant was detected by ELISA method as described before (Waldhauer & Steinle. 2006. Cancer research 66:2520-2526). 100 μl (triplicate) of cultured supernatant was added into a 96-well plate pre-coated with 1 μg/ml of mouse anti-ULBP2 (BUMO1) and incubated at 4° C. overnight. The plate was washed and then incubated with mouse anti-ULBP2 (IgG2a, 100 μl/well at 1 μg/ml) for 1 h followed by incubation with HRP-conjugated goat anti-mouse IgG2a for 1 h at room temperature. TMB substrate was added and the plate was read using Victor^2 plate reader (Perkin Elmer).
# [2] = test system: HCT116 xenograft; assay: HCT116 xenograft model in NSG mice (bioluminescence imaging); type: in vivo
# Experimental: (A) 1×10^6 luciferase-expressing HCT116 cells, alone or with 2×10^7 NKL cells, were subcutaneously injected into 8- to 10-week-old NSG mice (n=4). […] HCT116 xenograft growth was analyzed by performing bioluminescence imaging on day 15. (B) 1×10^6 HCT116 cells were subcutaneously injected into 8- to 10-week-old NSG mice. […] Tumor sections were prepared for ULBP2 immunohistochemical staining on day 15. (C) NKG2D expression on the cell surface of YT-INDY and YT-INDY-NKG2D cells was analyzed by flow cytometry. […] (D) 1×10^6 luciferase-expressing HCT116 cells were subcutaneously injected into 8- to 10-week-old NSG mice with either 1×10^6 YT-INDY or YT-INDY-NKG2D cells (n=8 per group). […] HCT116 xenograft growth was analyzed by performing bioluminescence imaging on day 15. (E) MICA-B and ULBP1-3 expressions on the cell surface of HCT116 or HCT116-ΔNKG2DLs cells were analyzed by flow cytometry. […] (F) 1×10^6 luciferase-expressing HCT116 or HCT116-ΔNKG2DLs cells were subcutaneously injected into 8- to 10-week-old NSG mice with 1×10^6 YT-INDY-NKG2D cells (n=8 per group). […] HCT116 xenograft growth was analyzed by performing bioluminescence imaging on day 10. […] 1×10^6 each of luciferase-expressing HCT116 cells and YT-INDY-NKG2D were injected subcutaneously into the mice on day 0. HCT116 xenograft growth was analyzed by performing bioluminescence imaging on day 3. * P<0.05, ** P<0.01, *** P<0.005, **** P<0.0005.
# (§1) Luciferase-expressing HCT116 and HT29 cells were generated by lentiviral transduction of the cells with a CMV promoter-driven luciferase expression construct engineered from the pLL3.7 vector. […] Bioluminescence imaging was performed in a Xenogen imaging system to monitor tumor growth and the data were analyzed using Living Image software (Caliper LifeSciences). For the lung metastasis model using HT29 cells, lungs were harvested for bioluminescence imaging and then fixed in 10% neutral buffered formalin, paraffin embedded, sectioned, and stained with hematoxylin and eosin. A total of six lung sections at 100-μm intervals were collected for the observation of pulmonary nodules. For the hepatic metastasis model, 0.5×10^6 of luciferase-expressing HCT116 cells were intrasplenically implanted into 6-8 week-old NSG mice.
# [3] = test system: HT29 xenografts, lung metastasis; assay: lung metastasis model using HT29 cells; type: in vivo, NSG mice; conditions: i.p. twice a week for 3 weeks
# Experimental: The number of cells that invaded the ECM was determined after 24 h. Data are expressed as percentage change in tumor invasion relative to that of DMSO-treated cells (n=3). (D) Wound healing by DMSO- and SPIR-treated HCT116, HT29, and CAL27 cells was compared. Data are calculated as the percentage change in distance of migration relative to that of DMSO-treated cells (n=3). […] Tumor xenografts and lung metastases were detected by bioluminescence imaging on day 25. Data are shown as the average total flux (photons/second)±standard deviation (n=8). (F) The lung metastases (arrows) were confirmed by examining lung tissue sections. * P≤0.05, ** P<0.01, *** P<0.005, **** P<0.0001.
# as §1, with “For the hepatic metastasis model, 0.5×10^6 of luciferase-expressing HCT116 cells were intrasplenically implanted into 6-8 week-old NSG mice.” left out
# [4] = test system: HCT116 cells, hepatic metastasis; assay: hepatic metastasis model (intrasplenic HCT116); type: in vivo, NSG mice; conditions: i.p. every other day
# Experimental: (B) HCT116 cells were transfected with control KD or RXR-gamma-KD1 siRNA on day 0. […] The mRNA expression of TIMP2 and TIMP3 was analyzed by qRT-PCR on day 5. Data are shown as relative mRNA fold change of SPIR-treated RXR-gamma-KD1 cells to control KD cells (n=3). (C) HCT116 cells were transfected with control KD or RXR-gamma-KD1 siRNA on day 0. […] Data are calculated as the percentage change in distance of migration relative to that of DMSO-treated cells (n=3). (D) HCT116 cells were transfected with control KD, RXR-gamma-KD1, TIMP2-KD or TIMP3-KD siRNA on day 0. […] The number of cells that invaded the ECM was determined after 36 h. Data are expressed as percentage change in tumor invasion relative to that of DMSO-treated cells (n=3). (E) HCT116 cells were transfected with control-KD, TIMP2-KD or TIMP3-KD siRNA on day 0. […] Hepatic metastasis was analyzed by performing bioluminescence imaging on day 10.* P<0.05, ** P<0.005, *** P<0.0001.
# Luciferase-expressing HCT116 and HT29 cells were generated by lentiviral transduction of the cells with a CMV promoter-driven luciferase expression construct engineered from the pLL3.7 vector. […] Bioluminescence imaging was performed in a Xenogen imaging system to monitor tumor growth and the data were analyzed using Living Image software (Caliper LifeSciences). […]
# [5] = test system: MMP-1; assay: MMP-1 activity in culture supernatant; type: cell-based, human; conditions: culture supernatant from HT29 and CAL27 cells
# [6] = test system: DNA damage in HCT116 cells; assay: comet assay; type: cell-based, human
# Experimental: Experiments were performed according to the manufacturer's instructions.
structure (smiles),measurement,setting,value
"CC(=O)S[C@@H]1CC2=CC(=O)CC[C@]2(C)[C@H]2CC[C@@]3(C)[C@@H](CC[C@@]34CCC(=O)O4)[C@H]12 [SPIR, spironolactone]",amount of soluble ULBP2,[1],did not reduce but rather moderately increased
same,tumor growth in the presence of YT-INDY-NKG2D,[2]; 1.25 mg/mouse i.p.,strongly suppressed the tumor growth
same,"tumor growth, mice bearing NKL cells","[2]; HCT116 plus NKL cells, 1.25 mg/mouse i.p. twice a week for 2 weeks",suppressed tumor growth considerably
same,"tumor growth, SPIR alone","[2]; HCT116 without NKL cells, 1.25 mg/mouse i.p. twice a week for 2 weeks",did not affect tumor growth
same,HCT116 xenograft growth in YT-INDY-bearing mice,[2]; NKG2D-negative NK cell line,did not reduce the HCT116 xenograft growth
same,"tumor susceptibility to NK cell killing triggered by SPIR, HCT116-ΔNKG2DLs","[2]; NKG2DL-deficient HCT116 vs HCT116, YT-INDY-NKG2D",significantly reduced tumor susceptibility to NK cell killing
same,ULBP2 expression in the HCT116 xenografts,[2]; immunohistochemical staining day 15,significantly enhanced ULBP2 expression
same,tumor development after pretreatment,[2]; pretreating twice a week for 2 weeks before HCT116 and YT-INDY-NKG2D implantation,greatly inhibited tumor development
same,lung metastasis,[3],significant reduction of lung metastasis
same,hepatic tumor metastasis,[4],significantly suppresses tumor metastasis
same,MMP-1 activity,[5],decrease of MMP-1 activity
same,DNA breakage,"[6]; HCT116, 56 μM for 24 h",moderate decrease in DNA breakage
same,genotoxicity,[6]; conclusion from comet assays,not genotoxic
